# Where “and” joins values, the source holds several entries; their conditions need not be identical. Identical values can stand only once.
# System: collagen-induced arthritis in Lewis rats
# Assay: Collagen-induced arthritis (CIA) model in rats: body weight, paw volume, clinical scores, clinical observations
# Conditions: for Animal body weight percent change / Animal body weight: Group 5 (CIA + Example 101 3 mg/kg)
# [1] = Day 1, individual animals, 3 mg/kg
# [2] = Day 3, individual animals, 3 mg/kg
# [3] = Day 7, individual animals, 3 mg/kg
# Experimental: Prior to be randomly placed in treatment groups, animals were weighed, and paw volume was measured. Once randomly assigned to treatment groups, on Day 0, animals in groups 2-9 were immunized by subcutaneous injection at the base of the tail. The immunization comprised 100 μL of the CFA+Collagen emulsion (prepared according to the method in Experimental Method A). Animals in group one received no immunization. Seven days after the first injection, animals in groups 2-9 received a booster immunization comprising 200 μL of the IFA+Collagen emulsion (prepared according to the method in Experimental Method A).
# Starting on Day 0, animals in group 1 and 2 were administered daily doses of the vehicle per os (P.O.) for 21 days.
# The twice daily doses for animals in groups 4-9 were 8 hours apart (e.g., the first dose at 8:00 AM and the second dose at 4:00 PM).
# Body weight of all animals was recorded daily for the 21-day period. Blind clinical scores on all four limbs were conducted for all animals in the study. Animals were assessed prior to receiving their first dose of the compound or control, and scores for each limb were combined to a total daily score for each animal. Clinical score assessments were performed on Day 0, 6, 12, 13, 14, 15, 18, 19, and 21 (for a total of 9 daily scores).
# Paw volume was recorded for each animal on Day 0, 6, 12, 13, 14, 15, 18, 19, and 21 (for a total of 9 measurements). To measure paw volume, animals were gently held with one hand while the hind paw was placed into a plethysmometer with the other hand. Lipid displacement by the paw was recorded and used to represent paw volume.
# At the conclusion of the study (end of the 21-day period), animals were euthanized. Euthanasia occurred four hours after animals received their first dose on the morning of Day 21. Hind limbs were collected following euthanasia, with the left limb being used for H&E staining.
# All data measured and recorded was analyzed using SPSS 16.0 software. Groups were compared using one-way ANOVA and significance was set at p<0.05.
# Arthritis was induced in Lewis rats by immunizing animals with the CFA+Collagen emulsion via subcutaneous injection at the base of the tail on day 0. Seven days after the first immunization, animals received a booster immunization with the IFA+Collagen emulsion via subcutaneous injection at the base of the tail.
# Starting on day 0, animals in group 1 and 2 were administered daily doses of the vehicle per os (P.O.) for 21 days. […] The twice daily doses for animals in groups 4-9 were 8 hours apart (e.g., the first dose at 8:00 AM and the second dose at 4:00 PM).
compound,measurement,setting,value
"CNC(=O)c1[nH]c(C(=O)NC2CCC2)cc1O[C@@H](C)c1ccccc1 [Example 101, N^5-cyclobutyl-N^2-methyl-3-(1-phenylethoxy)-1H-pyrrole-2,5-dicarboxamide]",Average animal body weight percent change,"Day 12, CIA + 30 mg/kg",0.66%
same,Mean animal body weight,"Day 12, CIA + 30 mg/kg",163 g
same,Average animal body weight percent change,"Day 13, CIA + 3 mg/kg",7.74%
same,Mean animal body weight,"Day 13, CIA + 3 mg/kg",178 g
same,Average animal body weight percent change,"Day 13, CIA + 10 mg/kg",3.92%
same,Mean animal body weight,"Day 13, CIA + 10 mg/kg",169 g
same,Average animal body weight percent change,"Day 13, CIA + 30 mg/kg",0.18%
same,Mean animal body weight,"Day 13, CIA + 30 mg/kg",162 g
same,Average animal body weight percent change,"Day 14, CIA + 3 mg/kg",7.08%
same,Mean animal body weight,"Day 14, CIA + 3 mg/kg",177 g
same,Average animal body weight percent change,"Day 14, CIA + 10 mg/kg",4.05%
same,Mean animal body weight,"Day 14, CIA + 10 mg/kg",169 g
same,Average animal body weight percent change,"Day 14, CIA + 30 mg/kg",1.42%
same,Mean animal body weight,"Day 14, CIA + 30 mg/kg",164 g
same,Average animal body weight percent change,"Day 15, CIA + 3 mg/kg",5.15%
same,Mean animal body weight,"Day 15, CIA + 3 mg/kg",173 g
same,Average animal body weight percent change,"Day 15, CIA + 10 mg/kg",3.31%
same,Mean animal body weight,"Day 15, CIA + 10 mg/kg",168 g
same,Average animal body weight percent change,"Day 15, CIA + 30 mg/kg",2.38%
same,Mean animal body weight,"Day 15, CIA + 30 mg/kg",166 g
same,Average animal body weight percent change,"Day 16, CIA + 3 mg/kg",3.90%
same,Mean animal body weight,"Day 16, CIA + 3 mg/kg",171 g
same,Average animal body weight percent change,"Day 16, CIA + 10 mg/kg",2.23%
same,Mean animal body weight,"Day 16, CIA + 10 mg/kg",166 g
same,Average animal body weight percent change,"Day 16, CIA + 30 mg/kg",1.69%
same,Mean animal body weight,"Day 16, CIA + 30 mg/kg",165 g
same,Average animal body weight percent change,"Day 17, CIA + 3 mg/kg",3.37%
same,Mean animal body weight,"Day 17, CIA + 3 mg/kg",170 g
same,Average animal body weight percent change,"Day 17, CIA + 10 mg/kg",2.29%
same,Mean animal body weight,"Day 17, CIA + 10 mg/kg",166 g
same,Average animal body weight percent change,"Day 17, CIA + 30 mg/kg",1.41%
same,Mean animal body weight,"Day 17, CIA + 30 mg/kg",164 g
same,Average animal body weight percent change,"Day 18, CIA + 3 mg/kg",2.36%
same,Mean animal body weight,"Day 18, CIA + 3 mg/kg",169 g
same,Average animal body weight percent change,"Day 18, CIA + 10 mg/kg",1.38%
same,Mean animal body weight,"Day 18, CIA + 10 mg/kg",165 g
same,Average animal body weight percent change,"Day 18, CIA + 30 mg/kg",1.61%
same,Mean animal body weight,"Day 18, CIA + 30 mg/kg",165 g
same,Average animal body weight percent change,"Day 19, CIA + 3 mg/kg",0.91%
same,Mean animal body weight,"Day 19, CIA + 3 mg/kg",166 g
same,Average animal body weight percent change,"Day 19, CIA + 10 mg/kg",0.76%
same,Mean animal body weight,"Day 19, CIA + 10 mg/kg",164 g
same,Average animal body weight percent change,"Day 19, CIA + 30 mg/kg",1.24%
same,Mean animal body weight,"Day 19, CIA + 30 mg/kg",164 g
same,Average animal body weight percent change,"Day 20, CIA + 3 mg/kg",1.13%
same,Mean animal body weight,"Day 20, CIA + 3 mg/kg",167 g
same,Average animal body weight percent change,"Day 20, CIA + 10 mg/kg",1.30%
same,Mean animal body weight,"Day 20, CIA + 10 mg/kg",164 g
same,Average animal body weight percent change,"Day 20, CIA + 30 mg/kg",0.50%
same,Mean animal body weight,"Day 20, CIA + 30 mg/kg",163 g
same,Average animal body weight percent change,"Day 21, CIA + 3 mg/kg",1.73%
same,Mean animal body weight,"Day 21, CIA + 3 mg/kg",168 g
same,Average animal body weight percent change,"Day 21, CIA + 10 mg/kg",0.53%
same,Mean animal body weight,"Day 21, CIA + 10 mg/kg",163 g
same,Average animal body weight percent change,"Day 21, CIA + 30 mg/kg",0.50%
same,Mean animal body weight,"Day 21, CIA + 30 mg/kg",163 g
same,Animal body weight percent change,"Day 0, individual animals",0.00%
same,Animal body weight,[1],170 g
same,Animal body weight percent change,[1],−0.58% and 0.65%
same,Animal body weight percent change,"Day 2, individual animals, 3 mg/kg",0.62% and 0.56% and −1.20%
same,Animal body weight,[2],160 g and 170 g
same,Animal body weight percent change,[2],−0.62% and −1.13% and −0.60%
same,Animal body weight,"Day 4, individual animals, 3 mg/kg",170 g
same,Animal body weight percent change,"Day 5, individual animals, 3 mg/kg",0.00%
same,Animal body weight,"Day 6, individual animals, 3 mg/kg",180 g and 160 g
same,Animal body weight,[3],160 g and 180 g
same,Animal body weight percent change,[3],0.63%
same,Animal body weight,"Day 8, individual animals, 3 mg/kg",160 g
same,Animal body weight,"Day 9, individual animals, 3 mg/kg",170 g
same,Animal body weight percent change,"Day 10, individual animals, 3 mg/kg",9.70%
same,Animal body weight,"Day 11, individual animals, 3 mg/kg",180 g
